Experimental findings from patent US7544694B2, “Substituted diaza-spiro-[5.5]-undecane derivatives and their use as neurokinin antagonists” (Janssen Pharmaceutica N.V., priority 2004, dated 2009) are described below.

Assay type in all cases: cell-based
Assay [1] concerns the target NK1 (Homo sapiens, UniProt P25103). Nature of the assay: Signal transduction (ST), intracellular Ca++ (FLIPR), functional NK1 antagonistic activity. Particulars: antagonist, read-out: NK1 pIC50 (converted). As to the method:
(§1) This test evaluates in vitro functional NK1 antagonistic activity. For the measurements of intracellular Ca^++ concentrations the cells were grown on 96-well (black wall/transparent bottom) plates from Costar for 2 days until they reached confluence. The cells were loaded with 2 μM Fluo3 in DMEM containing 0.1% BSA and 2.5 mM probenecid for 1 h at 37° C. They were washed 3× with a Krebs buffer (140 mM NaCl, 1 mM MgCl2×6H2O, 5 mM KCl, 10 mM glucose, 5 mM HEPES; 1.25 mM CaCl2; pH 7.4) containing 2.5 mM probenecid and 0.1% BSA (Ca^++-buffer). The cells were preincubated with a concentration range of antagonists for 20 min at RT and Ca^++-signals after addition of the agonists were measured in a Fluorescence Image Plate Reader (FLIPR from Molecular Devices, Crawley, England). The peak of the Ca^++-transient was considered as the relevant signal and the mean values of corresponding wells were analysed as described below.
(§2) The sigmoidal dose response curves were analysed by computerised curve-fitting, using the GraphPad Program. The EC50-value of a compound is the effective dose showing 50% of maximal effect. For mean curves the response to the agonist with the highest potency was normalised to 100%. For antagonist responses the IC50-value was calculated using non-linear regression.
(§3) The last columns indicate—without being limited thereto—for which action the compounds might be most suitable. Of course, since for some neurokinin receptors no data was determined, it is obvious that these compounds might be attributed to another suitable use.

Assay [2] has as its target T1, NK2 (Homo sapiens, UniProt P21452).
T1 sequence (P21452 1-398): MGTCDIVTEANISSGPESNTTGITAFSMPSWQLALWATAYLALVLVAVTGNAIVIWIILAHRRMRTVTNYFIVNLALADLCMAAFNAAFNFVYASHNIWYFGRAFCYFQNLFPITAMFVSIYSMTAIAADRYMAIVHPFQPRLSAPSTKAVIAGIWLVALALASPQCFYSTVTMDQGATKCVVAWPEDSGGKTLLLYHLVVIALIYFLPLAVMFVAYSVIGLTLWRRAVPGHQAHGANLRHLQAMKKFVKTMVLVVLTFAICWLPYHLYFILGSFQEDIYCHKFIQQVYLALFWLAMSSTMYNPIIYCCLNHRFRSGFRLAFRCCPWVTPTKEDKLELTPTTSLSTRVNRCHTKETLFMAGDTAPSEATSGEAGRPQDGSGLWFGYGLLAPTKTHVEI
Nature of the assay: Signal transduction (ST), intracellular Ca++ (FLIPR), NK2. The following applies: antagonist, read-out: NK2 pIC50 (converted). As to the method: [The source words this procedure for another target and reports this target under the same test.] as §1, §2, §3

In assay [3] the target is T2, NK3 (Homo sapiens, UniProt P29371).
T2 sequence (P29371 1-465): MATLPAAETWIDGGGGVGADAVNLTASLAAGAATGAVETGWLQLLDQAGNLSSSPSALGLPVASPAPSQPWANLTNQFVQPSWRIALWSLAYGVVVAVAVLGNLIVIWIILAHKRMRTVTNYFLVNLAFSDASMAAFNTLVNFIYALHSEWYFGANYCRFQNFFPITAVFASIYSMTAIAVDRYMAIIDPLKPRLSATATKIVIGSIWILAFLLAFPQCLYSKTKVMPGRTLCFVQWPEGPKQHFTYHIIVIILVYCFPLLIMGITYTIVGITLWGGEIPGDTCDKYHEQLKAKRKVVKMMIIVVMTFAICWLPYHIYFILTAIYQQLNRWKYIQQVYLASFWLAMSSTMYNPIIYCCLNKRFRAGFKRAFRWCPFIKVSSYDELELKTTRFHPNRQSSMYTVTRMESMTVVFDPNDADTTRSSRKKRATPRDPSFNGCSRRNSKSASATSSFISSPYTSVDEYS
Nature of the assay: Signal transduction (ST), intracellular Ca++ (FLIPR), NK3. Particulars: antagonist, read-out: NK3 pIC50 (converted). As to the method: [The source words this procedure for another target and reports this target under the same test.] as §1, §2, §3

NK1, sequence (P25103 whole entry): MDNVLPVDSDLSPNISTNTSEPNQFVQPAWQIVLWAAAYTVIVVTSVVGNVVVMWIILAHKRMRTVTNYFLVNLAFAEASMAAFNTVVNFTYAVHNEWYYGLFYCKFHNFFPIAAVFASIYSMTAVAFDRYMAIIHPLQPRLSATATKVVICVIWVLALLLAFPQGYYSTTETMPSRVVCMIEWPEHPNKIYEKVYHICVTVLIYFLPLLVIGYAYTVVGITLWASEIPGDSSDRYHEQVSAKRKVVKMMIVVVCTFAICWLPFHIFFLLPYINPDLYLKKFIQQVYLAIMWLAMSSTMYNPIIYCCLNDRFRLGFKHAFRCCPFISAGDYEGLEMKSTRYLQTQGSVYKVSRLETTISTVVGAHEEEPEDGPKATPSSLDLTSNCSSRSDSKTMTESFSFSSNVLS

As for `Cc1nc(S(=O)(=O)N2CCC3(CCN([C@H]4CCN(C(=O)c5cc(C(F)(F)F)cc(C(F)(F)F)c5)[C@H](Cc5ccccc5)C4)CC3)CC2)cn1C` [Compound 100], the IC50 in assay [1] was 12 nM; in assay [2], 1260 nM; in assay [3] it was 331 nM.

As to `O=C(c1ccccc1Cl)N1CCC2(CC1)CCN([C@H]1CCN(C(=O)c3cc(C(F)(F)F)cc(C(F)(F)F)c3)[C@H](Cc3ccccc3)C1)CC2` [Compound 42], the IC50 in assay [1] is 61.7 nM; in assay [2] it was 8910 nM; in assay [3], 9330 nM.

Regarding `Cc1noc(C)c1S(=O)(=O)N1CCC2(CCN([C@H]3CCN(C(=O)c4cc(C(F)(F)F)cc(C(F)(F)F)c4)[C@H](Cc4ccccc4)C3)CC2)CC1` [Compound 101], the results for the IC50 in assay [1], in assay [2] and in assay [3] were 49 nM, 2000 nM and 6030 nM, respectively.

Consider `O=C(C1CCOC1)N1CCCC2(CCCN(C3CCN(C(=O)c4cc(C(F)(F)F)cc(C(F)(F)F)c4)C(Cc4ccccc4)C3)C2)C1` (single isomer, unassigned) [Compound 211], for which the results for the IC50 in assay [1], in assay [2] and in assay [3] were 282 nM, 4570 nM and around 10000 nM, respectively.

For the compound `O=C(c1cc(C(F)(F)F)cc(C(F)(F)F)c1)N1CC[C@H](N2CCC3(CC2)CCN(S(=O)(=O)c2cc(Br)c(Br)s2)CC3)C[C@H]1Cc1ccccc1` [Compound 98], the IC50 is 977 nM in assay [1], above 10000 nM in assay [2] and above 10000 nM in assay [3].

In the case of `Cn1cnc(C(=O)N2CCC3(CC2)CCN([C@H]2CCN(C(=O)c4cc(C(F)(F)F)cc(C(F)(F)F)c4)[C@H](Cc4ccccc4)C2)CC3)c1` [Compound 34], the IC50 in assay [1] is 191 nM; in assay [2] it was 6170 nM; in assay [3], above 10000 nM.

For the compound `O=C(c1cc(C(F)(F)F)cc(C(F)(F)F)c1)N1CC[C@H](N2CCC3(CC2)CCN(S(=O)(=O)C(F)(F)F)CC3)C[C@H]1Cc1ccccc1` [Compound 91], the values for the IC50 in assay [1], in assay [2] and in assay [3] were 87.1 nM, 1380 nM and 4370 nM, respectively.

In the case of `O=C1CCC(C(=O)N2CCC3(CC2)CCN([C@H]2CCN(C(=O)c4cc(C(F)(F)F)cc(C(F)(F)F)c4)[C@H](Cc4ccc(F)c(F)c4)C2)CC3)N1` (stereo partly drawn) [Compound 139], the IC50 in assay [1] is 38.9 nM; in assay [2], 2400 nM; in assay [3], 955 nM.

On to `O=C(c1ccsc1)N1CCCC2(CCN([C@H]3CCN(C(=O)c4cc(C(F)(F)F)cc(C(F)(F)F)c4)[C@H](Cc4ccccc4)C3)CC2)C1` [Compound 175], for which the IC50 in assay [1] was 15.5 nM; in assay [2], 4470 nM; in assay [3], above 10000 nM.

As for `O=C(c1cc(C(F)(F)F)cc(C(F)(F)F)c1)N1CC[C@H](N2CCC3(CC2)CCN(S(=O)(=O)c2cc(Cl)c(Cl)cc2Cl)CC3)C[C@H]1Cc1ccccc1` [Compound 115], the values for the IC50 in assay [1], in assay [2] and in assay [3] were 490 nM, above 10000 nM and above 10000 nM, respectively.

`O=C1CCC(C(=O)N2CCC3(CC2)CCN([C@H]2CCN(C(=O)c4cc(C(F)(F)F)cc(C(F)(F)F)c4)[C@H](Cc4ccccc4)C2)CC3)=NN1` [Compound 58]: the IC50 in assay [1] is 64.6 nM; in assay [2] it was above 10000 nM; in assay [3] it was above 10000 nM.

For `O=C(c1ccsc1)N1CCC2(CC1)CCN([C@H]1CCN(C(=O)c3cc(C(F)(F)F)cc(C(F)(F)F)c3)[C@H](Cc3ccc(Cl)c(Cl)c3)C1)CC2` [Compound 133], the IC50 in assay [1] is 53.7 nM; in assay [2], 3720 nM; in assay [3], 4900 nM.

Regarding `O=C(c1cccnc1)N1CCC2(CC1)CCN([C@H]1CCN(C(=O)c3cc(C(F)(F)F)cc(C(F)(F)F)c3)[C@H](Cc3ccccc3)C1)CC2` [Compound 50], the IC50 in assay [1] was 77.6 nM; in assay [2] it was 2630 nM; in assay [3], above 10000 nM.

For the compound `O=C(c1ccoc1)N1CCCC2(CCCN(C3CCN(C(=O)c4cc(C(F)(F)F)cc(C(F)(F)F)c4)C(Cc4ccccc4)C3)C2)C1` (stereo not drawn) [Compound 212], the IC50 in assay [1] was 631 nM; in assay [2] it was 3550 nM; in assay [3], 3800 nM.

Turning to `O=C(c1ccc2c(c1)OCO2)N1CCC2(CC1)CCN([C@@H]1CCN(C(=O)c3cc(C(F)(F)F)cc(C(F)(F)F)c3)[C@H](Cc3ccccc3)C1)CC2` [Compound 63], the figures for the IC50 in assay [1], in assay [2] and in assay [3] were 437 nM, 7940 nM and above 10000 nM, respectively.

For the compound `O=C(C=Cc1ccoc1)N1CCC2(CC1)CCN([C@H]1CCN(C(=O)c3cc(C(F)(F)F)cc(C(F)(F)F)c3)[C@H](Cc3ccccc3)C1)CC2` [Compound 85], the IC50 was 309 nM in assay [1], above 10000 nM in assay [2] and above 10000 nM in assay [3].

Regarding `O=C(c1cc(C(F)(F)F)cc(C(F)(F)F)c1)N1CC[C@H](N2CCC3(CC2)CCN(S(=O)(=O)C=Cc2ccccc2)CC3)C[C@H]1Cc1ccccc1` [Compound 128], the IC50 is 562 nM in assay [1], 5370 nM in assay [2] and above 10000 nM in assay [3].

On to `Cc1cc(=O)oc(C)c1C(=O)N1CCC2(CC1)CCN([C@H]1CCN(C(=O)c3cc(C(F)(F)F)cc(C(F)(F)F)c3)[C@H](Cc3ccccc3)C1)CC2` [Compound 47], for which the IC50 is 66.1 nM in assay [1], around 10000 nM in assay [2] and above 10000 nM in assay [3].

Take `Cc1ccc(OCC(=O)N2CCC3(CC2)CCN([C@H]2CCN(C(=O)c4cc(C(F)(F)F)cc(C(F)(F)F)c4)[C@H](Cc4ccccc4)C2)CC3)c(C)c1` [Compound 74]: the values for the IC50 in assay [1], in assay [2] and in assay [3] were 389 nM, above 10000 nM and above 10000 nM, respectively.

Turning to `N#Cc1ccc(S(=O)(=O)N2CCC3(CCN(C4CCN(C(=O)c5cc(C(F)(F)F)cc(C(F)(F)F)c5)C(Cc5ccccc5)C4)CC3)CC2)cc1` (stereo not drawn) [Compound 119], the IC50 was 66.1 nM in assay [1], 1070 nM in assay [2] and 1580 nM in assay [3].

With `O=C(c1cc(C(F)(F)F)cc(C(F)(F)F)c1)N1CC[C@H](N2CCC3(CC2)CCN(S(=O)(=O)Cc2cccc(Cl)c2)CC3)C[C@H]1Cc1ccccc1` [Compound 127], the IC50 was 263 nM in assay [1], 4680 nM in assay [2] and above 10000 nM in assay [3].

With `Cc1nnsc1C(=O)N1CCC2(CCN(C[C@H]3CCN(C(=O)c4cc(C(F)(F)F)cc(C(F)(F)F)c4)[C@H](Cc4ccccc4)C3)CC2)CC1` [Compound 183], the IC50 in assay [1] is 17 nM; in assay [2], 7760 nM; in assay [3], 7410 nM.

As to `O=C1CC2(CCN1CC1CC1)CCN(C1CCN(C(=O)c3cc(C(F)(F)F)cc(C(F)(F)F)c3)C(Cc3ccccc3)C1)CC2` (stereo not drawn) [Compound 195], the IC50 in assay [1] was 53.7 nM; in assay [2], around 1410 nM; in assay [3] it was 1450 nM.

Consider `O=C(Cc1ccsc1)N1CCC2(CC1)CCN([C@H]1CCN(C(=O)c3cc(C(F)(F)F)cc(C(F)(F)F)c3)[C@H](Cc3ccccc3)C1)CC2` [Compound 76], for which the figures for the IC50 in assay [1], in assay [2] and in assay [3] were 25.7 nM, 1150 nM and 3980 nM, respectively.

Regarding `O=C(c1ccc2c(c1)OCO2)N1CCC2(CC1)CCN([C@H]1CCN(C(=O)c3cc(C(F)(F)F)cc(C(F)(F)F)c3)[C@H](Cc3ccccc3)C1)CC2` [Compound 62], the figures for the IC50 in assay [1], in assay [2] and in assay [3] were 186 nM, above 10000 nM and above 10000 nM, respectively.

`C/C(=C\C(=O)N1CCC2(CC1)CCN([C@H]1CCN(C(=O)c3cc(C(F)(F)F)cc(C(F)(F)F)c3)[C@H](Cc3ccccc3)C1)CC2)C(F)(F)F` [Compound 86]: the IC50 in assay [1] was 129 nM; in assay [2], above 10000 nM; in assay [3], above 10000 nM.
